Where two headings read alike, the source gives them in different places.

Test [1] addresses Ba/F3 CD74-ROS1^G2032R cell (Homo sapiens, UniProt P04233+P08922, G2032R). Kind of test: Antiproliferative CCK-8 assay, Ba/F3 CD74-ROS1^G2032R. The class given is cell-based. To be noted: for IC50: read-out: Ba/F3 cellular activities (nM) CD74-ROS1^G2032R, 72 h exposure, IC50, at least three independent experiments.
Test [2] deals with ALK^G1202R (Homo sapiens, UniProt Q9UM73, G1202R). The experiment in a line: HTRF KinEASE-TK kinase inhibitory assay, ALK^G1202R. It is filed as biochemical.
The test system of test [3] is HCC-78 cell line harbouring SLC34A2-ROS1 fusion. Kind of test: Antiproliferative MTT assay, HCC-78. The class given is cell-based, human. The note with it: read-out: Cellular IC50 (μM) HCC-78.
In test [4] the target is Ba/F3 CD74-ROS1^L2026M cell (Homo sapiens, UniProt P04233+P08922, L2026M). The experiment in a line: Antiproliferative CCK-8 assay, Ba/F3 CD74-ROS1^L2026M. The class given is cell-based. To be noted: read-out: Ba/F3 cellular activities (nM) CD74-ROS1^L2026M; 72 h exposure, IC50, at least three independent experiments.
The subject of test [5] is NCI-H3122 cell line harbouring EML4-ALK fusion. Kind of test: Antiproliferative MTT assay, NCI-H3122. The class given is cell-based, human. To be noted: read-out: Cellular IC50 (μM) NCI-H3122.
The target of test [6] is ALK^WT (Homo sapiens, UniProt Q9UM73). Kind of test: HTRF KinEASE-TK kinase inhibitory assay, ALK wild type. To be noted: for inhibition at 1 µM: read-out: ALK Inhibition (1μM); for ALK Inhibition (1μM): kinase inhibition % at 1 μM. The class given is biochemical.
Test [7] addresses ALK^L1196M (Homo sapiens, UniProt Q9UM73, L1196M). Kind of test: HTRF KinEASE-TK kinase inhibitory assay, ALK^L1196M. It is filed as biochemical.
The target in test [8] is ROS1 (Homo sapiens, UniProt P08922). Kind of test: HTRF KinEASE-TK kinase inhibitory assay, ROS1. The class given is biochemical. To be noted: for inhibition at 1 µM: read-out: ROS1 Inhibition (1μM); for ROS1 Inhibition (1μM): kinase inhibition % at 1 μM.
The target in test [9] is c-MET (Homo sapiens, UniProt P08581). Kind of test: HTRF kinase inhibitory assay, c-MET. To be noted: for inhibition at 1 µM: read-out: c-MET Inhibition (1μM); for c-MET Inhibition (1μM): kinase inhibition % at 1 μM. It is filed as biochemical.
The target of test [10] is Ba/F3 EML4-ALK^L1196M cell (Homo sapiens, UniProt Q9HC35+Q9UM73, L1196M). It is filed as cell-based. To be noted: read-out: Ba/F3 cellular activities (nM) EML4-ALK^L1196M; 72 h exposure, IC50, at least three independent experiments.
Test [11] has as its target Ba/F3 CD74-ROS1^WT cell (Homo sapiens, UniProt P04233+P08922). The experiment in a line: Antiproliferative CCK-8 assay, Ba/F3 CD74-ROS1^WT. The class given is cell-based. To be noted: 72 h exposure, IC50, at least three independent experiments; for IC50: read-out: Ba/F3 cellular activities (nM) CD74-ROS1^WT.
In test [12] the target is Ba/F3 EML4-ALK^WT cell (Homo sapiens, UniProt Q9HC35+Q9UM73). The class given is cell-based. To be noted: read-out: Ba/F3 cellular activities (nM) EML4-ALK^WT; 72 h exposure, IC50, at least three independent experiments.
Test [13] relates to phosphorylation of ROS1 and ERK in CD74-ROS1^WT cell. The experiment in a line: Western blot of ROS1 and ERK phosphorylation, CD74-ROS1^WT Ba/F3 cells. It is filed as cell-based.
Test [14] relates to phosphorylation of ROS1 and ERK in CD74-ROS1^L2026M cell. Kind of test: Western blot of ROS1 and ERK phosphorylation, CD74-ROS1^L2026M Ba/F3 cells. The class given is cell-based.
The subject of test [15] is ROS1-G2032R. To be noted: read-out: cellular IC50 ROS1-G2032R; cited from earlier work.
For test [16], the system named is ALK. The note with it: read-out: enzymatic IC50 against ALK; cited from earlier work.
Test [17] concerns NCI-H3122 cells. The experiment in a line: Apoptosis assay. It is filed as cell-based, human. The note with it: 48 h, vehicle 11.24%.
The test system of test [18] is phosphorylation of ALK in EML4-ALK^L1196M cell. The experiment in a line: Western blot of phosphorylation, EML4-ALK^L1196M Ba/F3 cells. The class given is cell-based.
Test [19] has as its system HCC-78 cells. The experiment in a line: Apoptosis assay. The class given is cell-based, human.
The test system of test [20] is ROS1 phosphorylation in CD74-ROS1^G2032R cell. Kind of test: Western blot of ROS1 phosphorylation, CD74-ROS1^G2032R Ba/F3 cells. The class given is cell-based. To be noted: up to 1000 nM.
Setting [21] is: read-out: Enzymatic activities (nM) ALK^G1202R, IC50, average of two independent experiments.
Setting [22] is: MTT, 72 h, mean of at least three independent experiments.
Setting [23] is: average of two independent experiments.
Where [24] appears, read: read-out: ROS1 IC50, average of two independent experiments.
Setting [25] is: read-out: Enzymatic activities (nM) ALK^L1196M, IC50, average of two independent experiments.

Regarding `C[C@@H](Oc1cc(-c2cnn(C)c2)cnc1N)c1ccccc1-c1ccccc1` [B08, (R)-3–(1-([1,1'-biphenyl]-2-yl)ethoxy)-5–(1-methyl-1H-pyrazol-4-yl)pyridin-2-amine], the IC50 was determined as 317 ± 92.1 nM in [1]; 195 nM in test [2]; 4.6 ± 0.8 µM in test [3] (Homo sapiens, HCC78, 72 h); 168 ± 56.3 nM in test [4]; 5.7 ± 0.6 µM in test [5] (Homo sapiens, NCI-H3122, 72 h); 67.4 nM in test [6]. In addition, the IC50 in [7] is greater than 1000 nM; in [8] it was 37.4 nM; in test [10], 1810 ± 270 nM; in test [11], 20.9 ± 1.7 nM; in [12], 681 ± 151 nM. Moreover, in [6], the “fold more potent than compound B03, ALK IC50” value is reported as roughly 4 fold. In addition, the inhibition at 1 µM in test [6] was found to be 100%; in test [8], 103%; in test [9], 64%. Also, the “fold more potent than compound B03, ROS1 IC50” value in [8] is on record as “about 10 fold”.

Regarding “(R)-5–(6-amino-5–(1-(4'-methoxy-[1,1'-biphenyl]-2-yl)ethoxy)pyridin-3-yl)-1'-methylspiro[indoline-3,4'-piperidin]-2-one [C03]”, the IC50 was determined as 94.4 ± 31.9 nM in [1]; 492 nM in test [2] (setting [21]); 4.6 ± 0.23 µM in test [3] (setting [22]); 38.3 ± 5.9 nM in test [4]; 1.9 ± 0.1 µM in [5] (setting [22]); 56.1 nM in [6] (read-out: ALK IC50). The IC50 was found to be 11.6 nM in [8] (setting [24]), 185 ± 22.2 nM in test [10], 18.3 ± 1.2 nM in test [11] and 228 ± 47.3 nM in test [12]. In addition, in test [6], the “ALK Inhibition (1μM)” value is 94%. Moreover, the “ROS1 Inhibition (1μM)” value in test [8] (setting [23]) amounted to 101%. In addition, the “c-MET Inhibition (1μM)” value in test [9] is on record as 63%.

As to `C[C@@H](Oc1cc(-c2cnn(C3CCNCC3)c2)cnc1N)c1c(Cl)ccc(F)c1Cl` [Crizotinib, reference compound], the IC50 in [3] (Homo sapiens, HCC78, 72 h) worked out at 4.5 ± 1.4 µM. Further, in test [8], the inhibition at 1 µM is 101%. Further, the “phosphorylation of ROS1 and ERK, CD74-ROS1^WT cell” value in test [13] was “attenuated phosphorylation of ROS1 and its key downstream molecule ERK in a dose-dependent manner”. The “phosphorylation of ROS1 and ERK, CD74-ROS1^L2026M cell” value in [14] is “attenuated phosphorylation of ROS1 and its key downstream molecule ERK in a dose-dependent manner”.

Consider `C[C@H]1Oc2cc(cnc2N)-c2c(nn(C)c2C#N)CN(C)C(=O)c2ccc(F)cc21` [Lorlatinib], for which the IC50 in test [15] was 203 nM.

With `C[C@@H](Oc1cc(-c2ccc3c(c2)NC(=O)C32CCN(C)CC2)cnc1N)c1c(Cl)ccc(F)c1Cl` [SMU-B, reference compound], the IC50 in test [16] was less than 0.5 nM; in [8] (setting [24]), 1.48 nM.

Take `C[C@@H](Oc1cc(-c2cnn(C)c2)cnc1N)c1ccccc1F` [A06, (R)-3–(1-(2-fluorophenyl)ethoxy)-5–(1-methyl-1H-pyrazol-4-yl)pyridin-2-amine]: the IC50 in [3] (Homo sapiens, HCC78, 72 h) came to 16 ± 1.2 µM; in test [5] (Homo sapiens, NCI-H3122, 72 h), 10.2 ± 0.1 µM; in [6], 231 nM; in [8] it was 83.1 nM. Moreover, the inhibition at 1 µM in test [6] amounted to 73%; in [8], 100%; in test [9] it was 11%.

On to “(R)-5–(5-(1-([1,1'-biphenyl]-2-yl)ethoxy)-6-aminopyridin-3-yl)-1'-methylspiro[indoline-3,4'-piperidin]-2-one [C01]”, for which, in test [1] (ratio of cellular IC50 to Crizotinib), the “fold more potent than Crizotinib, CD74-ROS1^G2032R cell” value is on record as “about 30 fold”. The IC50 in [1] turned out to be 42.3 nM; in test [2] (setting [21]), 49.1 nM; in [3] (setting [22]), 3.9 ± 0.5 µM; in test [4], 33.1 ± 1.4 nM; in test [5] (setting [22]) it was 3 ± 0.1 µM; in test [6] (read-out: ALK IC50), 25.6 nM. Also, the IC50 in [7] (setting [25]) was determined as 404 nM; in test [8] (setting [24]), 4.7 nM; in test [10], 120 ± 17.3 nM; in test [11], 7.6 ± 0.6 nM; in test [12] it was 145 ± 36 nM. For the same compound, the “fold potency superior to Crizotinib, ALK^G1202R enzyme” value in test [2] (ratio of enzymatic IC50 to Crizotinib) is listed as 10 fold. In test [6], the “ALK Inhibition (1μM)” value is listed as 101%. Besides, the “ROS1 Inhibition (1μM)” value in test [8] (setting [23]) is listed as 100%. Also, the “c-MET Inhibition (1μM)” value in test [9] came to 70%. The “percentage of apoptotic NCI-H3122 cell” value in test [17] (1.5 μM (IC50/2)) turned out to be 15.61%; in [17] (3.0 μM (1 IC50)), 29.47%; in test [17] (6.0 μM (2 IC50)) it was 35.13%. Also, the “Ba/F3 cellular activities (nM) CD74-ROS1^WT” value in test [11] was “comparable to Crizotinib”. The “phosphorylation of ROS1 and ERK, CD74-ROS1^WT cell” value in [13] was “attenuated phosphorylation of ROS1 and its key downstream molecule ERK in a dose-dependent manner”. Also, the “phosphorylation, EML4-ALK^L1196M cell” value in [18] is “persistent potency”. For the same compound, the “percentage of apoptotic HCC-78 cell” value in [19] (2.0 μM (IC50/2), 48 h, vehicle 10.7%) was 15.9%; in [19] (7.8 μM (2 IC50), 48 h, vehicle 10.7%) it was 31.7%; in test [19] (C01 3.9 μM (1 IC50) vs Crizotinib 4.5 μM (1 IC50)), “superior to that of Crizotinib treatment group”. In addition, the “phosphorylation of ROS1 and ERK, CD74-ROS1^L2026M cell” value in [14] was “attenuated phosphorylation of ROS1 and its key downstream molecule ERK in a dose-dependent manner”. For the same compound, the “ROS1 phosphorylation, CD74-ROS1^G2032R cell” value in [20] is listed as “significant inhibition of ROS1 phosphorylation occurred in a dose-dependent manner”.

Turning to “(R)-5–(6-amino-5–(1-(4'-fluoro-[1,1'-biphenyl]-2-yl)ethoxy)pyridin-3-yl)-1'-methylspiro[indoline-3,4'-piperidin]-2-one [C02]”, the IC50 in test [1] was 107 ± 12.6 nM; in [2] (setting [21]), 276 nM; in test [3] (setting [22]) it was 4.4 ± 0.5 µM; in [4], 21.3 ± 4.7 nM; in test [5] (setting [22]) it was 2.8 ± 0.9 µM; in [6] (read-out: ALK IC50), 30.1 nM. The IC50 in [7] (setting [25]) came out at 643 nM; in test [8] (setting [24]), 4.6 nM; in [10], 148 ± 27.3 nM; in test [11], 5.4 ± 1 nM; in [12], 191 ± 51.8 nM. Moreover, in test [6] (1 µM), the “ALK Inhibition (1μM)” value is 98%. In addition, in test [8] (average of two independent experiments, 1 µM), the “ROS1 Inhibition (1μM)” value is on record as 102%. In addition, in test [9] (1 µM), the “c-MET Inhibition (1μM)” value stood at 69%. For the same compound, the “Ba/F3 cellular activities (nM) CD74-ROS1^WT” value in test [11] is recorded as “comparable to Crizotinib”.

These data come from publication PMC10288926 (Journal of Enzyme Inhibition and Medicinal Chemistry, 2023).
